# Results reported in US20240059695A1, “SUBSTITUTED IMIDAZO[1,5-b]PYRIDAZINE COMPOUNDS AS KINASE INHIBITORS AND USE THEREOF” (IMPACT THERAPEUTICS (SHANGHAI), INC, priority 2020, published 2024).
# What was measured:
# Type in all cases: cell-based
# [1] = test system: human ovarian cancer OVCAR-3 cell; assay: Synergistic inhibition of Example 1 in combination with senaparib, MTT assay; conditions: for Combination Index (CI): OVCAR-3, 3 days
# Description: The cells were digested by trypsinase and centrifuged at 800 rpm for 5 minutes, the supernatant was discarded, and the residual was resuspended with fresh medium (1640 medium+10% FBS) and counted. The cells were seeded into 96-well cell culture plate with an appropriate density and incubated overnight in a 5% CO2 incubator at 37° C. The stock solutions of the test substances were serially diluted to 4-5 concentrations by DMSO at the ratios of 1:3, respectively. 5 µL diluent of each concentration was added to 120 μL of medium (25 times diluted) and mixed by shaking. The overnight cell plates were taken and the culture medium was removed, […] of fresh medium was added to each well, and 5 μL of diluted compound or 5 μL of medium containing DMSO was added respectively (the final concentration of DMSO is 1%), and the culture plate was then placed in a 5% CO2 incubator at 37° C. for 3 days. After removing the original solution, 100 μL of fresh serum-free DMEM medium containing MTT (0.5 mg/mL) was added to each well, the culture was continued. After 4 hours, the original solution was removed, 100 μL of DMSO was added to each well, the 96-well plates were shaken for 10 minutes in the dark and placed in a multi-function reader to read the absorbance at the wavelength of 552/690 nm. Cell viability (%)=(ODcompound−ODbackground)/(ODDMSO−ODbackground)×100. The combination index (CI) was calculated with the software CalcuSyn.
# [2] = test system: human ovarian cancer OVCAR-3 cell; assay: MTT proliferation assay of Example 1, OVCAR-3; conditions: OVCAR-3, 96 h, 4 days
# Description: (§1) The cells were digested by trypsinase and centrifuged at 800 rpm for 5 minutes, the supernatant was discarded, and the residual was resuspended with fresh medium (1640 medium+10% FRS) and counted. The cells were seeded into 96well cell culture plate with a density of 2000/4000 cells per well and incubated overnight in a 5% CO2 incubator at 37° C. The stock solutions of the test substances were serially diluted to 8 concentrations by DMSO at the ratios of 1:3 and 1:10, respectively. 5 μL diluent of each concentration was added to […] (25 times diluted) and mixed by shaking. The overnight cell plates were taken and the culture medium was removed, 195 μL of fresh medium was added to each well, and 5 μL of diluted medium containing the corresponding concentration of the test compound was added respectively (the final concentration of DMSO is 1%), and the culture plate was then placed in a 5% CO2 incubator at 37° C for 4 days. After removing the original solution, […] of fresh serum-free DMEM medium containing MTT (0.5 mg/mL) was added to each well, the culture was continued. After 4 hours, the original solution was removed, 100 μL, of DMSO was added to each well, the 96-well plates were shaken for 10 minutes in the dark and placed in a multi-function reader to read the absorbance at the wavelength of 552/690 nm. […]
# [3] = test system: human lung cancer NCI-H460 cell; assay: MTT proliferation assay, NCI-H460; conditions: NCI-H460, 96 h, MTT, 4 days, read-out: IC50 (nM), proliferation of NCI-H460 cell
# Description: The cells were digested by trypsinase and centrifuged at 800 rpm for 5 minutes, the supernatant was discarded, and the residual was resuspended with fresh medium […]) and counted.
# (§2) The cells were seeded into 96-well cell culture plate with a density of 2000/4000 cells per well and incubated overnight in a 5% CO2 incubator at 37° C. […] 5 μL diluent of each concentration was added to 120 μL of medium (25 times diluted) and mixed by shaking. The overnight cell plates were taken and the culture medium was removed, 195 μL of fresh medium was added to each well, and 5 μL of diluted medium containing the corresponding concentration of the test compound was added respectively (the final concentration of DMSO is 1%), and the culture plate was then placed in a 5% CO2 incubator at 37° C. for 4 days. After removing the original solution, 100 μL of fresh serum-free DMEM medium containing MTT (0.5 mg/mL) was added to each well, the culture was continued. […] Cell viability (%)=(ODcompound−ODbackground)/(ODDMSO−ODbackground)×100. GraphPad Prism 6.0 was used to analyze the data. The inhibitory activity of compounds on cell proliferation was plotted based on cell viability and the logarithm of compound concentration. The IC50 value was fitted by a sigmoidal dose response curve equation Y−100/(1+10^(LogC−LogIC50)), wherein C was the concentration of compound.
# [4] = test system: human breast cancer HCC1806 cell; assay: MTT proliferation assay of Example 1, HCC1806; conditions: HCC1806, 96 h, 4 days
# Description: as §1
# [5] = test system: human colon cancer LoVo cell; assay: MTT proliferation assay, LoVo; conditions: Homo sapiens, LoVo, 96 h, MTT, 4 days; read-out: IC50 (nM), proliferation of LoVo cell
# Description: as §2, with “[…]” for “100 μL”, “viability (%)=(ODcompound−ODbackground)/ODDMSO−ODbackground)×100.” for “viability (%)=(ODcompound−ODbackground)/(ODDMSO−ODbackground)×100.”, “The IC5.0” for “The IC50”, “equation Y=100/(1+10^(LogC-LogIC50)),” for “equation Y−100/(1+10^(LogC−LogIC50)),”
structure (smiles),measurement,setting,value
"Cc1nc(-c2ccn[nH]2)n2nc(N3CCOC[C@H]3C)cc(-c3ccnn3C)c12 [Example 1, (R)-3-methyl-4-(5-methyl-4-(1-methyl-1H-pyrazol-5-yl)-7-(1H-pyrazol-5-yl)imidazo[1,5-b]pyridazin-2-yl)morpholine]",Combination Index (CI),[1]; 11 nM Example 1 + 37 nM senaparib,1.157
same,Combination Index (CI),[1]; 11 nM Example 1 + 111 nM senaparib,0.215
same,Combination Index (CI),[1]; 11 nM Example 1 + 333 nM senaparib,0.069
same,Combination Index (CI),[1]; 11 nM Example 1 + 1000 nM senaparib,0.052
same,Combination Index (CI),[1]; 11 nM Example 1 + 3000 nM senaparib,0.044
same,Combination Index (CI),[1]; 33 nM Example 1 + 37 nM senaparib,0.275
same,Combination Index (CI),[1]; 33 nM Example 1 + 111 nM senaparib,0.213
same,Combination Index (CI),[1]; 33 nM Example 1 + 333 nM senaparib,0.18
same,Combination Index (CI),[1]; 33 nM Example 1 + 1000 nM senaparib,0.148
same,Combination Index (CI),[1]; 33 nM Example 1 + 3000 nM senaparib,0.12
same,Combination Index (CI),[1]; 100 nM Example 1 + 37 nM senaparib,0.603
same,Combination Index (CI),[1]; 100 nM Example 1 + 111 nM senaparib,0.544
same,Combination Index (CI),[1]; 100 nM Example 1 + 333 nM senaparib,0.488
same,Combination Index (CI),[1]; 100 nM Example 1 + 1000 nM senaparib,0.424
same,Combination Index (CI),[1]; 100 nM Example 1 + 3000 nM senaparib,0.364
same,Combination Index (CI),[1]; 300 nM Example 1 + 37 nM senaparib,1.588
same,Combination Index (CI),[1]; 300 nM Example 1 + 111 nM senaparib,1.471
same,Combination Index (CI),[1]; 300 nM Example 1 + 333 nM senaparib,1.377
same,Combination Index (CI),[1]; 300 nM Example 1 + 1000 nM senaparib,1.276
same,Combination Index (CI),[1]; 300 nM Example 1 + 3000 nM senaparib,1.195
same,synergistic effect on inhibiting the proliferation of OVCAR-3 cells (in words),[1]; combination of Example 1 and senaparib,good synergistic effect
same,IC50,[2],182 nM
same,IC50,[3],16.5 nM
same,IC50,[4],38.8 nM
same,IC50,[5],26.7 nM
